Each molecule was assayed on HIV-1 (assay: HIV-1 single-round infectious luciferase reporter virus (pseudotype) assay in HeLa CD4 CCR5 cells). Details: Human immunodeficiency virus 1, HeLa-CD4/CCR5, 72 h, read-out: EC50 Group from Table 1, HeLa CD4 CCR5 cells, luciferase reporter virus, harvested 72 h after infection.
Assay type: cell-based
Procedure: • Virus production—Human embryonic Kidney cell line, 293, propagated in Dulbecco's Modified Eagle Medium (Life Technologies, Gaithersburg, Md.) containing 10% fetal Bovine serum (FBS, Sigma, St. Louis, Mo.). • Virus infection—Human epithelial cell line, HeLa, expressing the HIV-1 receptors CD4 and CCR^5 was propagated in Dulbecco's Modified Eagle Medium (Life Technologies, Gaithersburg, Md.) containing 10% fetal Bovine serum (FBS, Sigma, St. Louis, Mo.) and supplemented with 0.2 mg/mL Geneticin (Life Technologies, Gaithersburg, Md.) and 0.4 mg/mL Zeocin (Invitrogen, Carlsbad, Calif.). […] Transfections were performed using lipofectAMINE PLUS reagent as described by the manufacturer (Life Technologies, Gaithersburg, Md.). Experiment • 1. Compound was added to HeLa CD4 CCR5 cells plated in 96 well plates at a cell density of 5×10^4 cells per well in 100 μl Dulbecco's Modified Eagle Medium containing 10% fetal Bovine serum at a concentration of […]. • 2. 100 μl of single-round infectious reporter virus in Dulbecco's Modified Eagle Medium was then added to the plated cells and compound at an approximate multiplicity of infection (MOI) of 0.01, resulting in a final volume of 200 μl per well and a final compound concentration of <10 μM. • 3. Samples were harvested 72 h after infection. • 4. Viral infection was monitored by measuring luciferase expression from viral DNA in the infected cells using a luciferase reporter gene assay kit (Roche Molecular Biochemicals, Indianapolis, Ind.). Infected cell supernatants were removed and 50 μl of Dulbecco's Modified Eagle Medium (without phenol red) and 50 μl of luciferase assay reagent reconstituted as described by the manufacturer (Roche Molecular Biochemicals, Indianapolis, Ind.) was added per well. Luciferase activity was then quantified by measuring luminescence using a Wallac microbeta scintillation counter. • 5. […] An EC50 provides a method for comparing the antiviral potency of the compounds of this invention. The effective concentration for fifty percent inhibition (EC50) was calculated with the Microsoft Excel Xlfit curve fitting software. For each compound, curves were generated from percent inhibition calculated at 10 different concentrations by using a four paramenter logistic model (model 205). Table 1 is the key for the data in Tables 2-4. Cytoxicity assays were conducted with the same HeLa using methodology well known in the art.
In Table 5, X2, X4 etc. indicates the point of attachment. […] The data at 10 μM was calculated in the following manner:
For compounds tested at concentrations less than 10 μM, the percent inhibition at 10 μM was determined by extrapolation using the XLfit curve fitting feature of the Microsoft Excel spreadsheet software. Curves were obtained from 10 data points (% inhibition determined at 10 concentrations of compound) by using a four parameter logistic model (XLfit model 205: y=A+((B−A)/(I+((C/x)^D))), where, A=minimum y, B=maximum y, C=logEC50, D=slope factor, and x and y are known data values. Extrapolations were performed with the A and B parameters unlocked. […]
In the case of `C[C@@H]1CN(C(=O)c2ccccc2)CCN1C(=O)C(=O)c1c[nH]c2nc(-c3nnn[nH]3)ccc12` [Example 56], the EC50 is reported as 1000 to 5000 nM.

Same assay, conditions: Human immunodeficiency virus 1, HeLa-CD4/CCR5, read-out: EC50 Group from TABLE 1, HeLa CD4 CCR5 cells, single-round infectious luciferase reporter virus
`C[C@@H]1CN(C(=O)c2ccccc2)CCN1C(=O)C(=O)c1c[nH]c2c(-c3cnc(N)nc3)nccc12` [Example 153, (R)-1-benzoyl-3-methyl-4-[(7-(2-amino-pyrimidin-5-yl)-6-azaindol-3-yl)-oxoacetyl]piperazine] was tested, and the EC50 was under 1000 nM.
Molecule `COc1ncc(-c2ncc(OC)c3c(C(=O)C(=O)N4CCN(C(=O)c5ccccc5)CC4)c[nH]c23)cn1` [Example 117, 1-benzoyl-4-[(4-methoxy-7-(2-methoxy-pyrmdin-5-yl)-6-azaindol-3-yl)-oxoacetyl]piperazine] has an EC50 of under 1000 nM.
`COc1cnc(C2=NC(C)(C)CO2)c2[nH]cc(C(=O)C(=O)N3CCN(C(=O)c4ccccc4)CC3)c12` [Example 156] gave an EC50 of under 1000 nM.
In the case of `COc1nc(-c2ncc(OC)c3c(C(=O)C(=O)N4CCN(C(=O)c5ccccc5)CC4)c[nH]c23)cnc1N` [Example 101, 1-benzoyl-4-[(4-methoxy-7-(2-amino-3-methoxy-pyrazin-5-yl)-6-azaindol-3-yl)-oxoacetyl]piperazine], the EC50 is reported as under 1000 nM.
`COc1cnc(-c2nccn2C)c2[nH]cc(C(=O)C(=O)N3CCN(C(=O)c4ccccc4)CC3)c12` [Example 27, 1-benzoyl-4-[(4-methoxy-7-(1-methyl-imidazol-2-yl)-6-azaindol-3-yl)-oxoacetyl]piperazine] was tested, and the EC50 was under 1000 nM.
`COc1cnc(-c2cnccn2)c2[nH]cc(C(=O)C(=O)N3CCN(C(=O)c4csnn4)CC3)c12` [Example 197] was tested, and the EC50 was under 1000 nM.
Molecule `Nc1cnc(-c2ncc(Cl)c3c(C(=O)C(=O)N4CCN(C(=O)c5ccccc5)CC4)c[nH]c23)cn1` [Example 143] has an EC50 of under 1000 nM.
`CCN(CC)c1nc(-c2ncc(OC)c3c(C(=O)C(=O)N4CCN(C(=O)c5ccccc5)CC4)c[nH]c23)cs1` [Example 70, 1-benzoyl-4-[(4-methoxy-7-(2-diethylamino-thiazol-4-yl)-6-azaindol-3-yl)-oxoacetyl]piperazine] was tested, and the EC50 was under 1000 nM.
In the case of `COc1cnc(-c2cccnn2)c2[nH]cc(C(=O)C(=O)N3CCN(C(=O)c4ccccc4)CC3)c12` [Example 120, 1-benzoyl-4-[(4-methoxy-7-(pyridazin-3-yl)-6-azaindol-3-yl)-oxoacetyl]piperazine], the EC50 is reported as under 1000 nM.
For `O=C(Nc1cccnc1)c1ncc(F)c2c(C(=O)C(=O)N3CCN(C(=O)c4ccccc4)CC3)c[nH]c12` [Example 147], the EC50 was under 1000 nM.
With `C[C@@H]1CN(C(=O)c2ccccc2)CCN1C(=O)C(=O)c1c[nH]c2c(-c3cccs3)nccc12` [Example 9, 1-(benzoyl)-3-®-methyl-4-[(7-(thien-2-yl)-6-azaindol-3-yl)-oxoacetyl]piperazine] the EC50 was under 1000 nM.
In the case of `COc1cnc(-n2ccc(C3=CCCCC3)n2)c2[nH]cc(C(=O)C(=O)N3CCN(C(=O)c4ccccc4)CC3)c12` [Example 278, 1-benzoyl-4-[(4-methoxy-7-(3-(cyclohexen-1-yl)-pyrazol-1-yl)-6-azaindol-3-yl)-oxoacetyl]piperazine], the EC50 is reported as under 1000 nM.
In the case of `C[C@@H]1CN(C(=O)c2ccccn2)CCN1C(=O)C(=O)c1c[nH]c2c(-c3cnc(N(C)C)cn3)nccc12` [Example 105, (R)-1-picolinoyl-3-methyl-4-[(7-(2-dimethylamino-pyrazin-5-yl)-6-azaindol-3-yl)-oxoacetyl]piperazine], the EC50 is reported as under 1000 nM.
Work on `COc1cnc(-c2ccc3[nH]ccc3c2)c2[nH]cc(C(=O)C(=O)N3CCN(C(=O)c4ccccn4)CC3)c12` [Example 172, 1-picolinoyl-4-[(4-methoxy-7-(indol-5-yl)-6-azaindol-3-yl)-oxoacetyl]piperazine] yielded an EC50 of under 1000 nM.
`COc1cnc(-c2cccnc2)c2[nH]cc(C(=O)C(=O)N3CCN(C(=O)c4ccccc4)CC3)c12` [Example 25, 1-benzoyl-4-[(4-methoxy-7-(pyridin-3-yl)-6-azaindol-3-yl)-oxoacetyl]piperazine] gave an EC50 of under 1000 nM.
`COc1cnc(-c2ccnnc2)c2[nH]cc(C(=O)C(=O)N3CCN(C(=O)c4ccccc4)CC3)c12` [Example 23, l-benzoyl-4-[(4-methoxy-7-(pyridazin-4-yl)-6-azaindol-3-yl)-oxoacetyl]piperazine] showed an EC50 of under 1000 nM.
For `COc1cnc(-c2cnc(C(N)=O)cn2)c2[nH]cc(C(=O)C(=O)N3CCN(C(=O)c4ccccc4)CC3)c12` [Example 55, 1-benzoyl-4-[(4-methoxy-7-(2-aminocarbonyl-pyrazin-5-yl)-6-azaindol-3-yl)-oxoacetyl]piperazine], the EC50 was under 1000 nM.
`COc1cnc(-c2cc3ccccc3o2)c2[nH]cc(C(=O)C(=O)N3CCN(C(=O)c4ccccn4)CC3)c12` [Example 183, 1-picolinoyl-4-[(4-methoxy-7-(benzofuran-2-yl)-6-azaindol-3-yl)-oxoacetyl]piperazine] showed an EC50 of under 1000 nM.
`C[C@H]1CN(C(=O)c2ccccn2)CCN1C(=O)C(=O)c1c[nH]c2c(-c3cc4ccccc4o3)nccc12` [Example 108, (S)-1-picolinoyl-3-methyl-4-[(7-(benzofuran-2-yl)-6-azaindol-3-yl)-oxoacetyl]piperazine] was tested, and the EC50 was under 1000 nM.
`COc1cnc(-c2cscn2)c2[nH]cc(C(=O)C(=O)N3CCN(C(=O)c4ccccn4)CC3)c12` [Example 173, 1-picolinoyl-4-[(4-methoxy-7-(thiazol-4-yl)-6-azaindol-3-yl)-oxoacetyl]piperazine] was tested, and the EC50 was under 1000 nM.
With `COc1cnc(-n2cnc(CCC(=O)O)c2)c2[nH]cc(C(=O)C(=O)N3CCN(C(=O)c4ccccc4)CC3)c12` [Example 329] the EC50 was under 1000 nM.
Molecule `C[C@@H]1CN(C(=O)c2ccccc2)CCN1C(=O)C(=O)c1c[nH]c2c(-c3ccc(O)nc3)nccc12` [Example 122] has an EC50 of under 1000 nM.
With `CNc1nc(-c2ncc(F)c3c(C(=O)C(=O)N4CCN(C(=O)c5ccccc5)CC4)c[nH]c23)no1` [Example 298] the EC50 was under 1000 nM.
Work on `COc1cnc(-c2cnccn2)c2[nH]cc(C(=O)C(=O)N3CCN(C(=O)c4cnccn4)CC3)c12` [Example 195] yielded an EC50 of under 1000 nM.

Same assay, conditions: Human immunodeficiency virus 1, HeLa-CD4/CCR5, read-out: EC50 Group from Table 1, Table 2-1; HeLa CD4 CCR5 cells, single-round luciferase reporter virus
For `COCc1ccn(-c2ncc(OC)c3c(C(=O)C(=O)N4CCN(C(=O)c5ccccc5)[C@H](C)C4)c[nH]c23)n1` [Example 238, (R)-1-benzoyl-2-methyl-4-[(4-methoxy-7-(3-methoxymethyl-pyrazol-1-yl)-6-azaindol-3-yl)-oxoacetyl]piperazine], the EC50 was under 1000 nM.

Same assay, conditions: Human immunodeficiency virus 1, HeLa-CD4/CCR5, read-out: EC50 Group from Table 1, Table 4; HeLa CD4 CCR5 cells, single-round luciferase reporter virus
`CCOc1ncc(-c2ccnc3c(C(=O)C(=O)N4CCN(C(=O)c5ccccc5)C[C@H]4C)c[nH]c23)s1` [Example 54, 1-benzoyl-3-(R)-methyl-4-[(7-(2-ethoxy-thiazol-5-yl)-4-azaindol-3-yl)-oxoacetyl]piperazine] gave an EC50 of under 1000 nM.
For `Cc1csc(NC(=O)c2ccnc3c(C(=O)C(=O)N4CCN(C(=O)c5ccccc5)C[C@H]4C)c[nH]c23)n1` [Example 136, (R)-1-benzoyl-3-methyl-4-[(7-(4-methylthiazol-2-yl)aminocarbonyl-4-azaindol-3-yl)-oxoacetyl]piperazine], the EC50 was under 1000 nM.
Molecule `C[C@@H]1CN(C(=O)c2ccccc2)CCN1C(=O)C(=O)c1c[nH]c2c(-c3cnco3)cc(Cl)nc12` [Example 63, 1-benzoyl-3-(R)-methyl-4-[(5-chloro-7-(oxazol-5-yl)-4-azaindol-3-yl)-oxoacetyl]piperazine] has an EC50 of under 1000 nM.
With `Cc1noc(C)c1-c1ccnc2c(C(=O)C(=O)N3CCN(C(=O)c4ccccc4)C[C@H]3C)c[nH]c12` [Example 130] the EC50 was under 1000 nM.
